Experiment: xn = mol fraction of the nth substance listed
Details: 101 kPa, Liquid

O=[N+]([O-])c1ccccc1 [nitrobenzene] + Cc1ccccc1
Details | mass density [kg/m3]
293.15 K, x2 = 0 | 1202.95
293.15 K, x2 = 0.0629 | 1181.81
293.15 K, x2 = 0.1476 | 1153.37
293.15 K, x2 = 0.2138 | 1131.14
293.15 K, x2 = 0.2787 | 1109.35
293.15 K, x2 = 0.3587 | 1082.5
293.15 K, x2 = 0.4142 | 1063.89
293.15 K, x2 = 0.4831 | 1040.77
293.15 K, x2 = 0.5232 | 1027.31
293.15 K, x2 = 0.5771 | 1009.22
293.15 K, x2 = 0.6321 | 990.75
293.15 K, x2 = 0.6832 | 973.59
293.15 K, x2 = 0.7234 | 960.08
293.15 K, x2 = 0.8032 | 933.21
293.15 K, x2 = 0.8562 | 915.34
293.15 K, x2 = 0.9213 | 893.37
303.15 K, x2 = 0 | 1193.56
303.15 K, x2 = 0.0567 | 1174.37
303.15 K, x2 = 0.1332 | 1148.52
303.15 K, x2 = 0.185 | 1131.03
303.15 K, x2 = 0.2304 | 1115.73
303.15 K, x2 = 0.2798 | 1099.1
303.15 K, x2 = 0.3674 | 1069.64
303.15 K, x2 = 0.4026 | 1057.82
303.15 K, x2 = 0.4656 | 1036.69
303.15 K, x2 = 0.5072 | 1022.73
303.15 K, x2 = 0.5782 | 998.94
303.15 K, x2 = 0.6576 | 972.35
303.15 K, x2 = 0.7235 | 950.27
303.15 K, x2 = 0.7965 | 925.82
303.15 K, x2 = 0.8643 | 903.09
303.15 K, x2 = 0.9354 | 879.23
313.15 K, x2 = 0 | 1183.37
313.15 K, x2 = 0.0674 | 1160.46
313.15 K, x2 = 0.1534 | 1131.33
313.15 K, x2 = 0.1978 | 1116.33
313.15 K, x2 = 0.2576 | 1096.15
313.15 K, x2 = 0.3254 | 1073.34
313.15 K, x2 = 0.3789 | 1055.38
313.15 K, x2 = 0.4577 | 1028.98
313.15 K, x2 = 0.5067 | 1012.59
313.15 K, x2 = 0.5564 | 996
313.15 K, x2 = 0.6134 | 976.98
313.15 K, x2 = 0.674 | 956.78
313.15 K, x2 = 0.7435 | 933.64
313.15 K, x2 = 0.8134 | 910.37
313.15 K, x2 = 0.865 | 893.2
313.15 K, x2 = 0.9134 | 877.09
323.15 K, x2 = 0 | 1172.38
323.15 K, x2 = 0.0479 | 1156.07
323.15 K, x2 = 0.1289 | 1128.59
323.15 K, x2 = 0.1874 | 1108.81
323.15 K, x2 = 0.2671 | 1081.99
323.15 K, x2 = 0.3371 | 1058.51
323.15 K, x2 = 0.3961 | 1038.77
323.15 K, x2 = 0.4628 | 1016.54
323.15 K, x2 = 0.5342 | 992.79
323.15 K, x2 = 0.6056 | 969.11
323.15 K, x2 = 0.6854 | 942.7
323.15 K, x2 = 0.7245 | 929.78
323.15 K, x2 = 0.8056 | 903.01
323.15 K, x2 = 0.8543 | 886.94
323.15 K, x2 = 0.8965 | 873.03
323.15 K, x2 = 0.9423 | 857.93
333.15 K, x2 = 0 | 1160.59
333.15 K, x2 = 0.0575 | 1141.04
333.15 K, x2 = 0.1435 | 1111.97
333.15 K, x2 = 0.2345 | 1081.38
333.15 K, x2 = 0.2978 | 1060.21
333.15 K, x2 = 0.3534 | 1041.68
333.15 K, x2 = 0.4213 | 1019.15
333.15 K, x2 = 0.4896 | 996.55
333.15 K, x2 = 0.5634 | 972.23
333.15 K, x2 = 0.6233 | 952.54
333.15 K, x2 = 0.6856 | 932.12
333.15 K, x2 = 0.7435 | 913.17
333.15 K, x2 = 0.7947 | 896.44
333.15 K, x2 = 0.8634 | 874.02
333.15 K, x2 = 0.9067 | 859.9
333.15 K, x2 = 0.9424 | 848.26
343.15 K, x2 = 0 | 1148
343.15 K, x2 = 0.0523 | 1130.3
343.15 K, x2 = 0.1389 | 1101.17
343.15 K, x2 = 0.1924 | 1083.27
343.15 K, x2 = 0.2684 | 1057.97
343.15 K, x2 = 0.3289 | 1037.94
343.15 K, x2 = 0.3889 | 1018.15
343.15 K, x2 = 0.4521 | 997.4
343.15 K, x2 = 0.5123 | 977.7
343.15 K, x2 = 0.5931 | 951.38
343.15 K, x2 = 0.6532 | 931.86
343.15 K, x2 = 0.7234 | 909.14
343.15 K, x2 = 0.7923 | 886.89
343.15 K, x2 = 0.8534 | 867.19
343.15 K, x2 = 0.8811 | 858.27
343.15 K, x2 = 0.9421 | 838.64
353.15 K, x2 = 0 | 1134.61
353.15 K, x2 = 0.0442 | 1119.76
353.15 K, x2 = 0.1247 | 1092.87
353.15 K, x2 = 0.1842 | 1073.14
353.15 K, x2 = 0.2479 | 1052.11
353.15 K, x2 = 0.2943 | 1036.87
353.15 K, x2 = 0.3479 | 1019.33
353.15 K, x2 = 0.4109 | 998.83
353.15 K, x2 = 0.4671 | 980.61
353.15 K, x2 = 0.5239 | 962.27
353.15 K, x2 = 0.5791 | 944.5
353.15 K, x2 = 0.6321 | 927.5
353.15 K, x2 = 0.7913 | 876.69
353.15 K, x2 = 0.8423 | 860.48
353.15 K, x2 = 0.8742 | 850.36
353.15 K, x2 = 0.9311 | 832.32

O=[N+]([O-])c1ccccc1 [nitrobenzene] + Cc1ccccc1C
Details | mass density [kg/m3]
293.15 K, x2 = 0 | 1202.95
293.15 K, x2 = 0.0498 | 1184.47
293.15 K, x2 = 0.1289 | 1155.75
293.15 K, x2 = 0.1892 | 1134.33
293.15 K, x2 = 0.2532 | 1112.04
293.15 K, x2 = 0.3234 | 1088.07
293.15 K, x2 = 0.3891 | 1066.07
293.15 K, x2 = 0.4421 | 1048.61
293.15 K, x2 = 0.4923 | 1032.31
293.15 K, x2 = 0.5534 | 1012.76
293.15 K, x2 = 0.6132 | 993.93
293.15 K, x2 = 0.6734 | 975.26
293.15 K, x2 = 0.7321 | 957.32
293.15 K, x2 = 0.7931 | 938.95
293.15 K, x2 = 0.8523 | 921.38
293.15 K, x2 = 0.9323 | 898.02
303.15 K, x2 = 0 | 1193.56
303.15 K, x2 = 0.0535 | 1173.86
303.15 K, x2 = 0.1123 | 1152.62
303.15 K, x2 = 0.1782 | 1129.29
303.15 K, x2 = 0.2423 | 1107.06
303.15 K, x2 = 0.3139 | 1082.76
303.15 K, x2 = 0.3687 | 1064.49
303.15 K, x2 = 0.4348 | 1042.84
303.15 K, x2 = 0.5023 | 1021.14
303.15 K, x2 = 0.5681 | 1000.36
303.15 K, x2 = 0.6189 | 984.56
303.15 K, x2 = 0.6892 | 963.04
303.15 K, x2 = 0.7422 | 947.07
303.15 K, x2 = 0.8021 | 929.26
303.15 K, x2 = 0.8731 | 908.5
303.15 K, x2 = 0.9298 | 892.17
313.15 K, x2 = 0 | 1183.37
313.15 K, x2 = 0.0621 | 1160.16
313.15 K, x2 = 0.1298 | 1135.44
313.15 K, x2 = 0.1924 | 1113.1
313.15 K, x2 = 0.2499 | 1092.98
313.15 K, x2 = 0.3234 | 1067.82
313.15 K, x2 = 0.3891 | 1045.81
313.15 K, x2 = 0.4348 | 1030.76
313.15 K, x2 = 0.5109 | 1006.14
313.15 K, x2 = 0.5782 | 984.82
313.15 K, x2 = 0.6328 | 967.81
313.15 K, x2 = 0.6902 | 950.21
313.15 K, x2 = 0.7591 | 929.44
313.15 K, x2 = 0.8244 | 910.1
313.15 K, x2 = 0.8823 | 893.22
313.15 K, x2 = 0.9357 | 877.88
323.15 K, x2 = 0 | 1172.38
323.15 K, x2 = 0.0634 | 1147.74
323.15 K, x2 = 0.1244 | 1124.62
323.15 K, x2 = 0.1824 | 1103.12
323.15 K, x2 = 0.2311 | 1085.44
323.15 K, x2 = 0.2893 | 1064.7
323.15 K, x2 = 0.3214 | 1053.45
323.15 K, x2 = 0.3855 | 1031.35
323.15 K, x2 = 0.4345 | 1014.79
323.15 K, x2 = 0.4902 | 996.28
323.15 K, x2 = 0.5689 | 970.68
323.15 K, x2 = 0.6321 | 950.58
323.15 K, x2 = 0.7024 | 928.68
323.15 K, x2 = 0.7842 | 903.78
323.15 K, x2 = 0.8725 | 877.55
323.15 K, x2 = 0.9432 | 857.03
333.15 K, x2 = 0 | 1160.59
333.15 K, x2 = 0.0598 | 1135.86
333.15 K, x2 = 0.1132 | 1114.33
333.15 K, x2 = 0.1935 | 1082.9
333.15 K, x2 = 0.2491 | 1061.75
333.15 K, x2 = 0.3011 | 1042.41
333.15 K, x2 = 0.3672 | 1018.4
333.15 K, x2 = 0.4189 | 1000.06
333.15 K, x2 = 0.4783 | 979.42
333.15 K, x2 = 0.5389 | 958.84
333.15 K, x2 = 0.5901 | 941.8
333.15 K, x2 = 0.6598 | 919.09
333.15 K, x2 = 0.7243 | 898.58
333.15 K, x2 = 0.7929 | 877.26
333.15 K, x2 = 0.8687 | 854.25
333.15 K, x2 = 0.9244 | 837.72
343.15 K, x2 = 0 | 1148
343.15 K, x2 = 0.0587 | 1121.63
343.15 K, x2 = 0.1321 | 1089.78
343.15 K, x2 = 0.1849 | 1067.6
343.15 K, x2 = 0.2378 | 1045.95
343.15 K, x2 = 0.3012 | 1020.73
343.15 K, x2 = 0.3519 | 1001.09
343.15 K, x2 = 0.4242 | 973.86
343.15 K, x2 = 0.4981 | 946.94
343.15 K, x2 = 0.5533 | 927.38
343.15 K, x2 = 0.6232 | 903.27
343.15 K, x2 = 0.6623 | 890.09
343.15 K, x2 = 0.7429 | 863.56
343.15 K, x2 = 0.8122 | 841.44
343.15 K, x2 = 0.8823 | 819.66
343.15 K, x2 = 0.9422 | 801.51
353.15 K, x2 = 0 | 1134.61
353.15 K, x2 = 0.0623 | 1103.66
353.15 K, x2 = 0.1133 | 1079.21
353.15 K, x2 = 0.1892 | 1044.18
353.15 K, x2 = 0.2489 | 1017.71
353.15 K, x2 = 0.3129 | 990.32
353.15 K, x2 = 0.3798 | 962.71
353.15 K, x2 = 0.4124 | 949.61
353.15 K, x2 = 0.483 | 922.01
353.15 K, x2 = 0.5345 | 902.52
353.15 K, x2 = 0.6084 | 875.41
353.15 K, x2 = 0.6631 | 855.98
353.15 K, x2 = 0.7249 | 834.64
353.15 K, x2 = 0.7931 | 811.8
353.15 K, x2 = 0.852 | 792.66
353.15 K, x2 = 0.9123 | 773.59

Reference: the NIST ThermoML archive (doi:10.1016/j.jct.2004.12.008)
